Laboratory results taken from the NIST ThermoML archive (doi:10.1021/je300652k).

Conditions: Liquid, Pulse-echo method

FC(F)=C(F)C(F)(F)F [hexafluoropropene]
Conditions | speed of sound [m/s]
253.27 K, 1150 kPa | 575.6
253.27 K, 10940 kPa | 645.3
253.27 K, 25910 kPa | 728.8
253.27 K, 52820 kPa | 844.3
253.27 K, 75030 kPa | 921.1
253.27 K, 100630 kPa | 997.3
253.27 K, 125810 kPa | 1063
253.27 K, 151420 kPa | 1123.6
253.27 K, 174830 kPa | 1174.3
253.27 K, 200450 kPa | 1224.7
253.27 K, 250580 kPa | 1315.5
253.27 K, 299650 kPa | 1393.8
253.27 K, 350190 kPa | 1468.5
253.27 K, 400740 kPa | 1535.4
273.17 K, 1130 kPa | 488.3
273.17 K, 10400 kPa | 567.9
273.17 K, 25040 kPa | 660.8
273.17 K, 50150 kPa | 779.5
273.17 K, 75280 kPa | 871.7
273.17 K, 100230 kPa | 949
273.17 K, 125430 kPa | 1017.1
273.17 K, 150270 kPa | 1077.5
273.17 K, 175810 kPa | 1133.8
273.17 K, 200700 kPa | 1184.6
273.17 K, 250800 kPa | 1276.7
273.17 K, 300450 kPa | 1358.2
273.17 K, 350820 kPa | 1432.3
273.17 K, 400090 kPa | 1499.6
288.15 K, 1160 kPa | 424.2
288.15 K, 5200 kPa | 468.9
288.15 K, 10130 kPa | 513.8
288.15 K, 25190 kPa | 618
288.15 K, 50080 kPa | 741.2
288.15 K, 75440 kPa | 837.6
288.15 K, 100170 kPa | 916.1
288.15 K, 125510 kPa | 986.4
288.15 K, 150630 kPa | 1048.4
288.15 K, 175250 kPa | 1103.9
288.15 K, 200700 kPa | 1156.6
288.15 K, 250380 kPa | 1249
288.15 K, 300040 kPa | 1331.1
288.15 K, 350970 kPa | 1407.7
288.15 K, 400410 kPa | 1475.2
303.15 K, 1990 kPa | 370.7
303.15 K, 10090 kPa | 463.9
303.15 K, 25160 kPa | 576.7
303.15 K, 50920 kPa | 709.3
303.15 K, 75370 kPa | 804.5
303.15 K, 100560 kPa | 886.5
303.15 K, 125410 kPa | 956.2
303.15 K, 150900 kPa | 1020.1
303.15 K, 175340 kPa | 1075.6
303.15 K, 200830 kPa | 1129
303.15 K, 250190 kPa | 1221.9
303.15 K, 300750 kPa | 1306.5
303.15 K, 350300 kPa | 1381.1
303.15 K, 400020 kPa | 1450.2
323.18 K, 2300 kPa | 288.3
323.18 K, 10550 kPa | 404.9
323.18 K, 28790 kPa | 547
323.18 K, 50380 kPa | 664.6
323.18 K, 75340 kPa | 767.2
323.18 K, 101090 kPa | 852.8
323.18 K, 125070 kPa | 921.8
323.18 K, 150670 kPa | 987.4
323.18 K, 175680 kPa | 1045.2
323.18 K, 200750 kPa | 1098.6
323.18 K, 250620 kPa | 1193.8
323.18 K, 300400 kPa | 1278
323.18 K, 350810 kPa | 1355.4
323.18 K, 400580 kPa | 1424.9
343.19 K, 4760 kPa | 245.5
343.19 K, 8270 kPa | 311.3
343.19 K, 10440 kPa | 341.8
343.19 K, 50540 kPa | 627.2
343.19 K, 75610 kPa | 730.9
343.19 K, 100650 kPa | 818.3
343.19 K, 125170 kPa | 890.4
343.19 K, 150340 kPa | 956.2
343.19 K, 175160 kPa | 1014.7
343.19 K, 200290 kPa | 1069
343.19 K, 250220 kPa | 1165.9
343.19 K, 300620 kPa | 1252
343.19 K, 350100 kPa | 1327.9
343.19 K, 400370 kPa | 1399.8
363.15 K, 10450 kPa | 287
363.15 K, 25500 kPa | 442
363.15 K, 50520 kPa | 592.9
363.15 K, 75490 kPa | 700.6
363.15 K, 100300 kPa | 787.2
363.15 K, 125230 kPa | 861.9
363.15 K, 150340 kPa | 928.6
363.15 K, 175590 kPa | 988.8
363.15 K, 200320 kPa | 1042.8
363.15 K, 250610 kPa | 1141.2
363.15 K, 300360 kPa | 1226.7
363.15 K, 350690 kPa | 1305.3
363.15 K, 400260 kPa | 1376
383.16 K, 15690 kPa | 310.6
383.16 K, 25690 kPa | 407.4
383.16 K, 50530 kPa | 562.3
383.16 K, 75940 kPa | 673.9
383.16 K, 100500 kPa | 761.1
383.16 K, 125630 kPa | 837.2
383.16 K, 150460 kPa | 903.4
383.16 K, 175770 kPa | 964.4
383.16 K, 200740 kPa | 1019.4
383.16 K, 250260 kPa | 1116.8
383.16 K, 300690 kPa | 1204.6
383.16 K, 350280 kPa | 1282.6
383.16 K, 400510 kPa | 1354.3
403.14 K, 16670 kPa | 288.3
403.14 K, 25610 kPa | 375.7
403.14 K, 50890 kPa | 537.5
403.14 K, 75640 kPa | 647.4
403.14 K, 100060 kPa | 737.1
403.14 K, 125630 kPa | 813.6
403.14 K, 150360 kPa | 880.3
403.14 K, 175620 kPa | 941.6
403.14 K, 200670 kPa | 997.2
403.14 K, 250500 kPa | 1096
403.14 K, 300660 kPa | 1183.8
403.14 K, 350610 kPa | 1262.3
403.14 K, 400280 kPa | 1333.6
423.15 K, 19600 kPa | 293.5
423.15 K, 25100 kPa | 345.1
423.15 K, 50800 kPa | 513
423.15 K, 75400 kPa | 623.9
423.15 K, 100710 kPa | 715.4
423.15 K, 125320 kPa | 791.3
423.15 K, 150160 kPa | 858.8
423.15 K, 175410 kPa | 920.3
423.15 K, 200520 kPa | 976.3
423.15 K, 250420 kPa | 1075.9
423.15 K, 300390 kPa | 1163.6
423.15 K, 350600 kPa | 1243
423.15 K, 400920 kPa | 1315.6
448.15 K, 25130 kPa | 318.1
448.15 K, 50710 kPa | 485
448.15 K, 75240 kPa | 596.6
448.15 K, 100750 kPa | 689.4
448.15 K, 125710 kPa | 766.5
448.15 K, 150770 kPa | 834.5
448.15 K, 175320 kPa | 894.5
448.15 K, 200820 kPa | 951.6
448.15 K, 250910 kPa | 1051.8
448.15 K, 300780 kPa | 1139.3
448.15 K, 350710 kPa | 1218.3
448.15 K, 400820 kPa | 1291.1
473.14 K, 25160 kPa | 298.7
473.14 K, 50460 kPa | 462.3
473.14 K, 75570 kPa | 576.7
473.14 K, 100220 kPa | 666.6
473.14 K, 125570 kPa | 745.3
473.14 K, 150690 kPa | 814
473.14 K, 175720 kPa | 875.3
473.14 K, 200800 kPa | 931.7
473.14 K, 250600 kPa | 1031.5
473.14 K, 300640 kPa | 1119.7
473.14 K, 350560 kPa | 1199
473.14 K, 400750 kPa | 1272
